Results on seven compounds are retold here after ChEMBL document CHEMBL1201862, “PubChem BioAssay data set” (2004).

Common to all, as to experiment: growth of human tumour cells (NCI), 48 h
The subject of experiment [1] is COLO 205.
Experiment [2] deals with SF-539.
Experiment [3] relates to UACC-62.
Experiment [4] deals with T47D.
Experiment [5] relates to SW-620.
In experiment [6] the test system is NCI-H226.
For experiment [7], the system named is 786-0.
The test system of experiment [8] is LOX IMVI.
In experiment [9] the test system is SNB-75.
For experiment [10], the system named is KM12.
Experiment [11] relates to U-251.
The subject of experiment [12] is UO-31.
Experiment [13] deals with SK-MEL-2.
Experiment [14] relates to Hs-578T.
Experiment [15] deals with SF-295.
For experiment [16], the system named is SK-MEL-5.
Experiment [17] relates to HCT-15.
Experiment [18] concerns BT-549.
The subject of experiment [19] is CAKI-1.
Experiment [20] has as its system IGROV-1.

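Grown in 96-well plates, cells were treated for 48 hours with each compound at five concentrations. Insufficient inhibition: endpoint recorded as highest concentration tested. GI50 = concentration required for 50% inhibition of growth.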 The source made the active and inactive calls. No stated cut-off is given here; in the data, active = GI50 up to about 1.1 µM and inactive = higher. Where only a bound is given, the exact number is not on record here.

For the compound `COc1cc2c(c(OC)c1OC)-c1c(cc3c(c1OC)OCO3)CC(C)C(C)(O)C2OC(=O)c1ccccc1` (stereo not given), the GI50 in experiment [1] is 22.5 µM (inactive); in [2] it was > 100 µM (inactive); in experiment [3], 56 µM (inactive); in experiment [4], 42.3 µM (inactive); in [5], 71.8 µM (inactive); in experiment [6] it was 29.4 µM (inactive). The GI50 in experiment [7] is 55.1 µM (inactive); in experiment [8] it was 31.2 µM (inactive); in [9], 41 µM (inactive); in experiment [10] it was 41.1 µM (inactive); in [11], 39.9 µM (inactive); in experiment [12], 21.1 µM (inactive). The GI50 was 25 µM (inactive) in [13]; 32.5 µM (inactive) in experiment [14]; 39.4 µM (inactive) in experiment [15]; 31.1 µM (inactive) in experiment [16]; 33.2 µM in experiment [17]; 56.1 µM (inactive) in experiment [18]. Moreover, the GI50 in experiment [19] was 33 µM (inactive); in [20], 38.3 µM (inactive).
Take `CN1CC2CN(Cc3ccccc3)CCN2c2cccnc21` (stereo not given): the GI50 was 36.6 µM (inactive) in experiment [1]; 62.8 µM (inactive) in [2]; 68.4 µM (inactive) in [3]; 53.7 µM (inactive) in experiment [4]; 35.2 µM (inactive) in experiment [5]; 57.7 µM (inactive) in [6]. Further, the GI50 in [7] was 52.1 µM (inactive); in experiment [8], 20.9 µM (inactive); in [9], 41.3 µM (inactive); in experiment [10], 23.9 µM (inactive); in [11], 42.8 µM (inactive); in experiment [12] it was 69.3 µM (inactive). Moreover, the GI50 in experiment [13] was 89.7 µM (inactive); in experiment [14], 40.3 µM (inactive); in experiment [15], 89.5 µM (inactive); in experiment [16], 31.1 µM (inactive); in [17] it was 28.6 µM; in [18] it was 33.3 µM (inactive). Also, the values for the GI50 in experiment [19] and in experiment [20] were 93.1 µM (inactive) and 52.7 µM (inactive), respectively.
For `COC(=O)[C@H](CCSC)NC(=O)c1ccc(CNC(=O)/C=C/c2cccc(Oc3ccccc3)c2)cc1`, the GI50 was 21.9 µM (inactive) in experiment [1]; > 74.3 µM (inactive) in [2]; 18.2 µM (inactive) in [3]; 0.27 µM (active) in [4]; 77.4 µM (inactive) in [5]; > 23.8 µM (inactive) in experiment [6]. Also, the GI50 in experiment [7] is > 100 µM (inactive); in experiment [8], 51.8 µM (inactive); in experiment [9], 22.4 µM (inactive); in [10], > 100 µM (inactive); in [11] it was > 100 µM (inactive); in experiment [12], 42.9 µM (inactive). Moreover, the GI50 in [13] is 14.8 µM (inactive); in experiment [14], 59.2 µM (inactive); in experiment [15], > 78.5 µM (inactive); in [16], 15.6 µM (inactive); in experiment [17], above 62.8 µM; in experiment [18], > 69.7 µM (inactive). Further, the GI50 in experiment [19] is > 46.5 µM (inactive); in experiment [20], 27.5 µM (inactive).
`O=C(NCc1cccnc1)C(=O)NCc1cccnc1`: the GI50 in experiment [1], in experiment [2], in experiment [3], in [4], in experiment [5] and in experiment [6] was > 100 µM (inactive) each time. Moreover, the GI50 in experiment [7], in experiment [8], in experiment [9], in experiment [10], in experiment [11] and in experiment [12] was > 100 µM (inactive) each time. Moreover, the GI50 in [13] was > 100 µM (inactive); in experiment [14], > 100 µM (inactive); in experiment [15] it was > 100 µM (inactive); in experiment [16], > 100 µM (inactive); in [17], above 100 µM; in experiment [18] it was > 100 µM (inactive). Besides, the GI50 in experiment [19] and in experiment [20] was > 100 µM (inactive) each time.
For `O=C1Nc2ccccc2/C1=C/c1c(Cl)[nH]c2ccc(O)cc12`, the GI50 in experiment [1] was 2.07 µM (inactive); in experiment [2], 0.544 µM (active); in experiment [3], 0.681 µM (active); in experiment [4], 3.02 µM (inactive); in experiment [5], 1.18 µM (inactive); in [6], 1.08 µM (active). Further, the GI50 in experiment [7] is 3.27 µM (inactive); in [8], 2.75 µM (inactive); in experiment [9], 1.95 µM (inactive); in experiment [10] it was 1.37 µM (inactive); in experiment [11], 1.33 µM (inactive); in experiment [12], 3.9 µM (inactive). The GI50 in experiment [13] was 1.55 µM (inactive); in experiment [14], 3.99 µM (inactive); in experiment [15], 2.79 µM (inactive); in experiment [16], 1.21 µM (inactive); in experiment [17] it was 0.971 µM; in [18], 4.84 µM (inactive). Also, the GI50 in [19] is 3.74 µM (inactive); in experiment [20], 1.69 µM (inactive).
Take `COc1cc([C@H]2c3cc(O)c(OC)cc3C[C@]3(O)[C@@H]2CO[C@@H]3O)ccc1O`: the GI50 in experiment [1], in experiment [2], in experiment [3], in experiment [4], in [5] and in [6] was > 100 µM (inactive) in each case. For the same compound, the GI50 in experiment [7], in experiment [8], in experiment [9], in experiment [10], in experiment [11] and in experiment [12] was > 100 µM (inactive) each time. The GI50 is > 100 µM (inactive) in experiment [13]; > 100 µM (inactive) in experiment [14]; > 100 µM (inactive) in experiment [15]; > 100 µM (inactive) in experiment [16]; above 100 µM in experiment [17]; > 100 µM (inactive) in experiment [18]. In addition, the GI50 in [19] and in experiment [20] was > 100 µM (inactive) throughout.
For the compound `Nc1nc(Cl)cc(NCC2(CO)CC(OCc3ccccc3)C2)n1` (stereo not given), the GI50 in [1] was > 100 µM (inactive); in experiment [2] it was > 100 µM (inactive); in [3], 96.4 µM (inactive); in experiment [4] it was 2.94 µM (inactive); in experiment [5] it was > 100 µM (inactive); in experiment [6], 25.6 µM (inactive). Further, the GI50 in [7] is > 100 µM (inactive); in experiment [8], 23.2 µM (inactive); in [9] it was 16.4 µM (inactive); in experiment [10] it was > 100 µM (inactive); in [11], 90.4 µM (inactive); in experiment [12] it was > 100 µM (inactive). Also, the GI50 in [13] was > 100 µM (inactive); in experiment [14] it was > 100 µM (inactive); in [15], > 100 µM (inactive); in [16], 7 µM (inactive); in [17] it was 65.6 µM; in [18] it was 35.9 µM (inactive). Moreover, the GI50 in [19] and in [20] was > 100 µM (inactive) in each case.
